According to patent US6090825A, “Oxazole derivatives as antagonists of alpha 1C andrenergic receptors” (Glaxo Wellcome Inc., priority 1994, dated 2000):
Where a name gives a salt, the structure may show the parent alone. Blank lines part the entries; values can stand above or below the compound they belong to.

Columns and labels:
diastolic blood pressure = assay: Canine model: inhibition of phenylephrine response on diastolic blood pressure in anesthetized dog; type: in vivo, male mongrel dogs; conditions: Canis lupus familiaris, iv, dose (salt) producing 50% inhibition of agonist (phenylephrine) response on diastolic blood pressure, cumulative i.v. infusion, read-out: BP ED50
Procedure: (§1) A. CANINE URETHRAL-PROSTATE PRESSURE
(§2) To evaluate the ability of compounds to affect urethral-prostate pressure (contractility) while assessing their cardiovascular effects simultaneously.
(§3) Using hypogastric nerve stimulation (NS) and the .varies.-1 agonist phenylephrine (or other receptor agonists, as appropriate) the responses of urethral pressures and systemic blood pressure are recorded. The tests compounds are then given in a log dose infusion. The inhibition of the NS response within the prostate as well as the systemic phenylephrine response on blood pressure is measured to assess the uro-selectivity of the compound in the anesthetized dog.
Interesting compounds are those that express uro-selectivity with a ratio of >100 for the urethral pressure vs diastolic blood pressure comparisons (BP.US). […]
(§4) 4. Rectal temperature is monitored and maintained at 37-39° C. with a heating pad. […]
(§5) 1. After a control period of at least 30 minutes and establishment of stable baselines of urethral and blood pressure are observed, the control responses to NS or phenylephrine bolus are recorded.
3. At a time point 5 minutes post NS a phenylephrine bolus (10 μg/kg) is given into the cephalic vein and changes in blood pressure are recorded. At least two NS and phenylephrine injections are performed and evaluated for their consistency, the second consistent stimulation is picked for the baseline value response. […]

urethral pressure = assay: Canine urethral-prostate pressure: inhibition of hypogastric nerve stimulation response in anesthetized dog; type: in vivo, male mongrel dogs
Procedure: as §1, §2
as §3, with “dog. […]” for “dog.”
as §4
3. […] The effects of either nerve stimulation (NS) or IV phenylephrine can be evaluated.
as §5
2. A hypogastric nerve stimulation of 16 Hertz, 10 Volts, 10 msec pulse width and 10 sec train duration are given and changes in urethral pressures are recorded.
3. At a time point 5 minutes post NS a phenylephrine bolus (10 μg/kg) is given into the cephalic vein and changes in blood pressure are recorded. […]

male Wistar rats = assay: Behavioural and autonomic observation after oral dosing in rats; type: in vivo; conditions: 10 mg/kg po
Procedure: The compound of Example 13 was administered at 10 mg/kg (po) to male Wistar rats.

[1] = Crystal form stability and hygroscopicity; type: physicochemical
Procedure: Compounds of the present invention can exist in more than one crystalline form. For example, crystalline forms may vary from solvate to solvate. Compounds of the present invention encompass all possible crystalline forms. In particular, for example, 5-(2-{4-[5-(4-fluorophenyl)-4-(2,2,2-trifluoroethoxymethyl)-oxazol-2-yl}-ethyl)-2-methoxybenzenesulfonamide hydrochloride exists in four known crystal forms. Form I melts around 145° C. and converts to Form III which has a melting point around 200° C.

SMILES: COc1ccc(CCN2CCC(c3nc(COCC(F)(F)F)c(-c4ccc(F)cc4)o3)CC2)cc1S(N)(=O)=O [Example 12, 2-Methoxy-5-(2-{4-[5-(4-fluoro-phenyl)-4-(2,2,2-trifluoro-ethoxymethyl)-oxazol-2-yl]-piperidin-1-yl}-ethyl)-benzenesulfonamide]
- ED50 (diastolic blood pressure): 7.15 mg/kg
- ED50 (urethral pressure; Canis lupus familiaris, iv, dose (salt) producing 50% inhibition of nerve stimulation response on urethral pressure, cumulative i.v. infusion, anesthetized dog, read-out: UP ED50): 0.013 mg/kg
- BP/UP (urethral pressure; ratio of the BP ED50 to the UP ED50, uro-selectivity): 550

- ptosis (male Wistar rats; between 1 and 4 hours after dosing): Slight to moderate ptosis was observed
- hygroscopicity ([1]; below 70% relative humidity): non-hydgroscopic
- solid state and chemical stability ([1]; below 70% relative humidity): good solid state and chemical stability
- conversion of crystal form ([1]; greater than 70% relative humidity): converts to form IV
SMILES: COc1ccc(CCN2CCC(c3nc(COCC(F)(F)F)c(-c4ccc(F)cc4)o3)CC2)cc1S(N)(=O)=O [Example 13, 5-(2-{4-[5-(4-fluorophenyl)-4-(2,2,2-trifluoroethoxymethyl)-oxazol-2-yl}-ethyl)-2-methoxybenzenesulfonamide hydrochloride]
- animals' appearance by 24 hours after dosing (male Wistar rats; 24 hours): all animals appeared normal by 24 hours after dosing

- conversion of crystal form ([1]; room temperature, aqueous media): convert to a hydrated form (Form IV)
SMILES: COc1ccc(CCN2CCC(c3nc(COCC(F)(F)F)c(-c4ccc(F)cc4)o3)CC2)cc1S(N)(=O)=O [Form I, 5-(2-{4-[5-(4-fluorophenyl)-4-(2,2,2-trifluoroethoxymethyl)-oxazol-2-yl}-ethyl)-2-methoxybenzenesulfonamide hydrochloride]

SMILES: COc1ccc(CCN2CCC(c3nc(COCC(F)(F)F)c(-c4ccc(F)cc4)o3)CC2)cc1S(N)(=O)=O [Form IV, 5-(2-{4-[5-(4-fluorophenyl)-4-(2,2,2-trifluoroethoxymethyl)-oxazol-2-yl}-ethyl)-2-methoxybenzenesulfonamide hydrochloride]
- conversion of crystal form ([1]; upon separation from the aqueous media): readily converts to an anhydrous form (Form II)
